US7264314B2, “Adrenocorticotropic hormone analogs and related methods” (priority 2004, dated 2007)

How the values were obtained:
[1] = test system: serum corticosterone in dexamethasone-suppressed mice; experiment: in vivo Serum Corticosteroid Induction Assay; design: species or system FVB/N mice; details: for Percent reduction in serum corticosteroid: compared to unmodified mACTH(1–24), 1 μg s.c., blood one hour after administration
Description: An in vivo Serum Corticosteroid Induction Assay measures the level of corticosteroid or corticosterone in the blood stream of a subject. More specifically, the in vivo Serum Corticosteroid Induction Assay can include the following steps: first, an agent to suppress endogenous ACTH production was administered to a mouse subject, such as an intraperitoneal injection of dexamethasone; second, after waiting a suitable period of time for suppression of endogenous ACTH production (e.g., 1.5–2.0 hours), a test compound can be administered to the mouse by a suitable method, such as intraperitoneal or subcutaneous injection; and third, after waiting a suitable period of time (e.g., 1 hour) for action of the injected test compound, a blood sample can be taken from the subject and the level of serum corticosterone can be determined by a suitable method, such as a competitive radioimmunoassay using ^125I RIA kit (ICN, Costa Mesa, Calif.). Example 1 describes a murine in vivo Serum Corticosteroid Induction Assay in detail.
The corticosteroid or corticosterone secretion induced in vivo by an ACTH analog compound was compared to the level of corticosteroid secretion produced by an unmodified ACTH compound by measuring blood serum corticosteroid after administering either the ACTH or ACTH analog as test compounds. […] ACTH analog compositions with decreased function were identified by measuring corticosterone levels using standard radioimmunoassay (RIA) analysis on blood samples collected one hour after administering the mACTH(1–24) or ACTH analog compound to dexamethasone-suppressed mice. In FIG. 1, the potency of various ACTH analog peptides is expressed as per cent induction of corticosterone, with mouse ACTH being 100%. […] The percent of corticosterone induction 12 of ACTH analog Compounds in Samples 2–10 are shown as a percentage of the concentration of serum corticosterone 20 measured for unmodified mACTH(1–24) in the in vivo Serum Corticosteroid Adrenal Induction Assay. The structural modifications and measured percentage reduction in serum measured for Samples 2–10 in FIG. 1 are shown in Table 3 below.
The in vivo Serum Corticosteroid Induction Assay was performed according the following method. First, two to three month-old male FVB/N mice from our colony, five per group, were injected intraperitoneally with dexamethasone (0.4 mg/0.1 ml PBS per mouse; Sigma, St. Louis, Mo.) to suppress their endogenous ACTH production. See Hajos, G T et al., “Studies of the potency of polypeptides with ACTH action by a new method based on continuous measurement of plasma corticosterone,” Steroids Lipids Res 3:225–228 (1972), Costa, J L, et al., “Mutational analysis of evolutionarily conserved ACTH residues,” Gen Comp Endocrinol, 136:12–16 (2004), and Karpac, J, et al., “Development, Maintenance, and Function of the Adrenal Gland in Early Postnatal Pro-opiomelanocortin Null Mutant Mice,” Endocrinology (2005), published online ahead of print Feb. 24, 2005, all of which are incorporated herein by reference.
Second, ninety to one hundred twenty minutes later, the dexamethasone-suppressed mice were injected subcutaneously between the shoulder blades with either unmodified mACTH(1–24) or one of several ACTH analog peptide compounds (1 μg/0.1 mL PBS/0.5% BSA), or with vehicle alone (control) (0.1 mL PBS/0.5% BSA). The following ACTH analog peptide compounds were administered to separate mice: 1: murine ACTH1–24; 2: V26F,E30K; 3: P19W,K21E,Y23R; 4: E30K,P36R; 5: ALA19–24; 6: V26F,P36R; 7: P19W, K21E; 8: P19W,K21A,delY23; 9: P19W,K21A; 10: KRRP16-19RMW (AT814) (SEQ ID NO:20).
Third, one hour later, blood was collected within less than 1 minute from a small incision in the tail, and serum was flash-frozen and stored at −80° C. until assayed. Serum corticosterone was determined by competitive radioimmunoassay (^125I RIA kit; ICN, Costa Mesa, Calif.) according to the manufacturer's recommendations. One microliter of serum was used per assay sample. […]

[2] = test system: corticosterone production by explanted mouse adrenal halves; experiment: in vitro Serum-free Adrenal Inhibition Assay; assay type: cell-based; details: in vivo by Example 1, in vitro by Example 4
Description: A series of separate in vitro Serum-Free Adrenal Corticosteroid Inhibition Assay were performed to identify ACTH analogs that inhibit ACTH-induced adrenal hormone production in vitro. The concentration of corticosterone was measured according to the procedure of Example 4 in a serum-free culture medium containing explanted adrenal membrane and unmodified ACTH, AT814 ACTH analog (SEQ ID NO:20), or a combination of ACTH and AT814 at 100 ng/mL each. […] Corticosterone levels were taken at 2.0 hours after the adrenal membrane was placed in the serum free M199 medium, and each corticosterone level in Table 5 is an average of five samples.
The in vitro Serum-free Adrenal Inhibition Assay was performed according the following method. First, adrenals were removed from mice, dissected free of fat, and cut in half. See Costa, J L, et al., “Mutational analysis of evolutionarily conserved ACTH residues,” Gen Comp Endocrinol. 136:12–16 (2004); and Weber, M M, et al., “Postnatal overexpression of insulin-like growth factor II in transgenic mice is associated with adrenocortical hyperplasia and enhanced steroidogenesis,” Endocrinology 140:1537–1543 (1999), incorporated herein by reference.
Second, each adrenal half was placed into an individual well of a 4-well dish, one dish per mouse. Adrenal halves were incubated at 5% CO2, 37° C., in 0.5 ml serum-free medium (M199; Invitrogen) for 30 minutes to equilibrate.
Third, medium was removed and replaced by 0.5 ml M199 containing ACTH, AT814, or both, at 100 ng/ml each; controls had no peptides added.
Fourth, after 2 hours of incubation, the medium was removed, pooled for all four halves from each mouse, and assayed by corticosterone using standard RIA methods. corticosterone was determined by competitive radioimmunoassay (^125I RIA kit; ICN, Costa Mesa, Calif.) according to the manufacturer's recommendations. One microliter of serum was used per assay sample. Samples were run in duplicates.

| Substance | Percent reduction in serum corticosteroid [1] | also measured |
| --- | --- | --- |
| (E30K, P36R)mACTH (SYSMEHFRWGKPVGKKRRPVKVYPNVAENKSAEAFRLEF; Corticotropin; UniProt P01193 124-162, looked up, variant E30K P36R) [Sample 4] | 41.5% | – |
| (P19W, K21A)mACTH (SYSMEHFRWGKPVGKKRRWVAVYPNVAENESAEAFPLEF; Corticotropin; UniProt P01193 124-162, looked up, variant P19W K21A) [Sample 9] | 83.4% | – |
| (P19W, K21A, delY23)mACTH (SYSMEHFRWGKPVGKKRRWVAVPNVAENESAEAFPLEF; Corticotropin; UniProt P01193 124-162, looked up, variant P19W K21A Y23*) [Sample 8] | 76.0% | – |
| (P19W, K21E)mACTH (SYSMEHFRWGKPVGKKRRWVEVYPNVAENESAEAFPLEF; Corticotropin; UniProt P01193 124-162, looked up, variant P19W K21E) [Sample 7] | 61.1% | – |
| (P19W, K21E, Y23R)mACTH (SYSMEHFRWGKPVGKKRRWVEVRPNVAENESAEAFPLEF; Corticotropin; UniProt P01193 124-162, looked up, variant P19W K21E Y23R) [Sample 3] | 36.5% | – |
| (PVKVYP19-24AAAAA)mACTH [Sample 5] | 51% | in vivo activity in excess of the in vitro activity of unmodified mACTH (FIG. 5) ([1]; method of Example 1): about 50%; in vivo activity, % corticosterone induction relative to mACTH(1–24) (FIG. 5) ([1]; method of Example 1): greater relative to both mACTH and to other ACTH analogs; in vitro activity compared with in vivo activity (FIG. 5) [2]: increased serum half life measured in vivo |
| (V26F, E30K)mACTH (SYSMEHFRWGKPVGKKRRPVKVYPNFAENKSAEAFPLEF; Corticotropin; UniProt P01193 124-162, looked up, variant V26F E30K) [Sample 2] | 18.3% | – |
| (V26F, P36R)mACTH (SYSMEHFRWGKPVGKKRRPVKVYPNFAENESAEAFRLEF; Corticotropin; UniProt P01193 124-162, looked up, variant V26F P36R) [Sample 6] | 59.3% | – |
